Measurements reported in patent US8642612B2, “Nicotinic desensitizers and methods of selecting, testing, and using them” (Potomac Pharmaceuticals, Inc., priority 2006, dated 2014).
Like-named read-outs stand apart in the source and are kept apart here.

How the values were obtained:
[1] = cited from earlier work
[2] = molecular target: T1, rat α3β4 nAChRs (Rattus norvegicus, UniProt P04757+P12392); test: Inhibition of nicotine-stimulated 86Rb+ efflux, cells expressing rat α3β4 nAChRs; format: cell-based
T1 construct: expressed in transfected cells; the efflux text says only stably transfected cells
Procedure: (§1) In brief, cells were plated into 24-well plates coated with poly-D-lysine. […] The cells were then incubated in growth medium (0.5 ml/well) containing ^86Rb^+ (2 μCi/ml) for 4 hour at 37° C. The loading mixture was then aspirated, and the cells were washed four times with 1 ml buffer (15 mM HEPES, 140 mM NaCl, 2 mM KCl, 1 mM MgSO4, 1.8 mM CaCl2, 11 mM Glucose, pH 7.4). One ml of buffer with or without compounds to be tested was then added to each well. After incubation for 2 min, the assay buffer was collected for measurements of ^86Rb^+ released from the cells. Cells were then lysed by adding 1 ml of 100 mM NaOH to each well, and the lysate was collected for determination of the amount of ^86Rb^+ that was in the cells at the end of the efflux assay. Radioactivity of assay samples and lysates was measured by liquid scintillation counting. Total loading (cpm) was calculated as the sum of the assay sample and the lysate of each well. The amount of ^86Rb^+ efflux was expressed as a percentage of […] loaded. […] IC50 values were determined by nonlinear least-squares regression analyses (GraphPad, San Diego, Calif.).

[3] = molecular target: T2, rat α4β2 nAChRs (Rattus norvegicus, UniProt P09483+P12390); conditions: 100 pM [3H]EB; published previously (Xiao and Kellar, 2004); cited from earlier work
T2 construct: expressed in transfected cells; host or cells: HEK cells (membrane homogenates)

[4] = molecular target: T1, rat α3β4 nAChRs; conditions: 100 pM [3H]EB; published previously (Xiao and Kellar, 2004); cited from earlier work
[5] = molecular target: native nAChRs from rat forebrain (Rattus norvegicus, UniProt P09483+P12390); conditions: read-out: Ki Forebrain (rat); 100 pM [3H]EB; published previously (Xiao and Kellar, 2004); cited from earlier work
[6] = molecular target: T2, rat α4β2 nAChRs; test: [3H]epibatidine competition binding, rat α4β2 nAChRs expressed in HEK cells
Procedure: (§2) Briefly, cultured cells at >80% confluence were removed from their flasks (80 cm^2) with a disposable cell scraper and placed in 10 ml of 50 mM Tris HCl buffer (pH 7.4, 4° C.). The cell suspension was centrifuged at 10,000×g for 5 min and the pellet was collected. For cells treated chronically with nicotinic agonists during culturing, the pellet was washed two more times by centrifugation in fresh buffer to remove residual drug. […] Bound and free ligands were separated by vacuum filtration through Whatman GF/C filters treated with 0.5% polyethylenimine. The filter-retained radioactivity was measured by liquid scintillation counting. Specific binding was defined as the difference between total binding and nonspecific binding. Data from saturation and competition binding assays were analyzed using Prism 4 (GraphPad Software, San Diego, Calif.).
(§3) All ligand binding assays were carried out using rat or human nAChRs heterologously expressed in human cells or in native rat brain tissues.

[7] = molecular target: T1, rat α3β4 nAChRs; test: [3H]epibatidine competition binding, rat α3β4 nAChRs expressed in HEK cells
Procedure: as §2, with “drug. The cell pellet was then homogenized in 10 ml buffer with a polytron homogenizer (Model PT2100, 12 mm aggregate, 26,000 rpm, 20 seconds) and centrifuged at 36,000 g for 10 min at 4° C. The membrane pellet was resuspended in fresh buffer, and aliquots of the membrane preparation equivalent to 30 to 200 μg protein were used for binding assays.” for “drug.”
as §3

[8] = molecular target: T3, human α4β2 nAChRs (Homo sapiens, UniProt P17787+P43681); format: cell-based; conditions: stimulation of 86Rb+ efflux
T3 construct: expressed in transfected cells; the efflux text says only stably transfected cells
Procedure: as §1
(§4) The agonist activities of ligands on nAChRs were assessed by measuring agonist-stimulated ^86Rb^+ efflux from stably transfected cells.

[9] = molecular target: T1, rat α3β4 nAChRs; format: cell-based; conditions: stimulation of 86Rb+ efflux
Procedure: as §1, §4

[10] = molecular target: T3, human α4β2 nAChRs; test: Inhibition of nicotine-stimulated 86Rb+ efflux, cells expressing human α4β2 nAChRs; format: cell-based
Procedure: as §1

[11] = cited from earlier work; remark: listed apart in the source
[12] = example tables, species not given, read-out: Equilibrium binding affinity (Ki, nM) α4β2
[13] = example tables, species not given, read-out: Equilibrium binding affinity (Ki, nM) α3β4
[14] = 10 min pretreatment before nicotine, read-out: Desensitization Potency (IC50(D,10 min), nM) α4β2
[15] = applied simultaneously with nicotine, read-out: Acute Antagonist Potency (IC50(A), nM) α4β2
[16] = 10 min pretreatment before nicotine, read-out: Desensitization Potency (IC50(D,10 min), nM) α3β4
[17] = read-out: Acute Antagonist Potency (IC50(A), nM) α3β4
[18] = applied simultaneously with nicotine, read-out: Acute Antagonist Potency (IC50(A), nM) α3β4
[19] = Acute Antagonist Potency (IC50(A), nM) α4β2, applied simultaneously with nicotine
[20] = Desensitization Potency (IC50(D,10 min), nM) α4β2, 10 min pretreatment before nicotine
[21] = Acute Antagonist Potency (IC50(A), nM) α3β4, applied simultaneously with nicotine
[22] = Desensitization Potency (IC50(D,10 min), nM) α3β4, 10 min pretreatment before nicotine

Row | SMILES | Ki [6, 12] | Ki [7, 13] | Agonist Activity α4β2 [8] | Agonist Activity α3β4 [9] | IC50 [10, 14] | IC50 [10, 15] | IC50 [2, 16] | IC50 [2, 18] | IC50 [10, 19] | IC50 [10, 20] | IC50 [2, 21] | IC50 [2, 22] | further results
1 | CN1CCCC1c1cccnc1 (single isomer, unassigned; (-)) [(−)-Nicotine, nicotine] | – | – | – | – | – | – | – | – | – | – | – | – | t1/2 in vivo [1]: > 1 h
2 | CO[C@H]1CC=C2CCN3CCC4=C(CC(=O)OC4)[C@]23C1 [DHβE, dihydro-β-erythroidine] | – | – | – | – | – | – | – | – | – | – | – | – | IC50 ([2]; added simultaneously with 100 μM nicotine, mean ± SEM of 3 to 7 experiments, read-out: IC50 α3β4 nAChRs, 0 min Pretreatment): 160000 nM; IC50 ([2]; read-out: IC50 α3β4 nAChRs, 10 min Pretreatment, 10 min preincubation, then 100 μM nicotine, mean ± SEM of 3 to 7 experiments): 130000 nM; Ki [3]: 0.6 ± 0.07 µM; Ki [4]: 110 µM; Ki [5]: 0.13 ± 0.05 µM
3 | Cc1cc2n(c(=O)c1)CC1CNCC2C1 (stereo not shown) [SKC-2-150] | 1.9 nM | 6700 nM | Not detected | Not detected | 250 nM | > 10000 nM | > 10000 nM | – | – | – | – | – | IC50 [2, 17]: > 10000 nM
4 | O=c1cc(CO)cc2n1CC1CNCC2C1 (stereo not shown) [SKC-2-203] | 11 nM | 13000 nM | Not detected | Not detected | 600 nM | > 10000 nM | > 10000 nM | – | – | – | – | – | IC50 [2, 17]: > 10000 nM
5 | CNc1ccccc1C(=O)OCC#Cc1cncc(OC[C@@H]2CCN2)c1 [Sazetidine-B] | – | – | Not detected | Not detected | 30 nM | > 10000 nM | 6000 nM | > 10000 nM | – | – | – | – | Ki [6]: 0.22 nM; Ki [7]: 1300 nM
6 | C#Cc1cncc(OC[C@@H]2CCCN2C)c1 [ZW-87] | 1.6 nM | 6800 nM | Not detected | Not detected | – | – | – | – | > 10000 nM | 50 nM | > 10000 nM | > 10000 nM | –
7 | CN1CCC[C@H]1COc1cncc(C#CC(C)(C)O)c1 [ZW-88] | 2.9 nM | – | Not detected | Not detected | – | – | – | – | > 10000 nM | 890 nM | > 10000 nM | > 10000 nM | Ki [7]: 61000 nM
8 | CN1CCC[C@H]1COc1cncc(C#CCO)c1 [ZW-89] | 0.93 nM | 23000 nM | Not detected | Not detected | – | – | – | – | > 10000 nM | 180 nM | > 10000 nM | > 10000 nM | –
9 | CN1CCC[C@H]1COc1cncc(CCCCCCO)c1 [ZW-91] | – | – | Not detected | Not detected | – | – | – | – | > 10000 nM | 1000 nM | > 10000 nM | > 10000 nM | –
10 | CN1CCC[C@H]1COc1cncc(C#CCCCCCCCCO)c1 [ZW-93] | 6.1 nM | 66000 nM | Not detected | Not detected | – | – | – | – | 7400 nM | 460 nM | 4600 nM | 3800 nM | –
11 | CN1CCC[C@H]1COc1cncc(C#CCNC(=O)OC(C)(C)C)c1 [ZW-97] | – | – | Not detected | Not detected | 22 nM | > 10000 nM | 6900 nM | > 10000 nM | – | – | – | – | Ki [6]: 1.4 nM; Ki [7]: 75000 nM
12 | CN1CCC[C@H]1COc1cncc(C#Cc2ccccc2)c1 [ZW-98] | 0.51 nM | 8100 nM | Not detected | Not detected | 170 nM | > 10000 nM | 5300 nM | > 10000 nM | – | – | – | – | –
13 | CCCCC#Cc1cncc(OC[C@@H]2CCCN2C)c1 [ZW-100] | 1.4 nM | 40000 nM | Not detected | Not detected | 190 nM | > 10000 nM | 3300 nM | > 10000 nM | – | – | – | – | –
14 | CN1CCC[C@H]1COc1cncc(C#CCCCCO)c1 [ZW-101] | – | – | Not detected | Not detected | 160 nM | > 10000 nM | 2500 nM | > 10000 nM | – | – | – | – | Ki [6]: 0.67 nM; Ki [7]: 16000 nM
15 | FCCCCC#Cc1cncc(OC[C@@H]2CCCN2)c1 [ZW-102] | 0.91 nM | 7600 nM | Not detected | Not detected | – | – | – | – | > 10000 nM | 120 nM | > 10000 nM | 5400 nM | –
16 | FCCCCC#Cc1cncc(OC[C@@H]2CCN2)c1 [ZW-104] | – | 5500 nM | Not detected | Not detected | – | – | – | – | > 10000 nM | 5 nM | 9400 nM | 5700 nM | Ki [6]: 0.21 nM
17 | CN1CCC[C@H]1COc1cncc(C#CCCCCBr)c1 [ZW-109] | – | – | Not detected | Not detected | 270 nM | > 10000 nM | 2300 nM | 6900 nM | – | – | – | – | Ki [6]: 1.4 nM; Ki [7]: 16000 nM
18 | CN1CCC[C@H]1COc1cncc(C#CCCCCF)c1 [ZW-110] | 0.95 nM | 88000 nM | Not detected | Not detected | – | – | – | – | > 10000 nM | 60 nM | > 10000 nM | > 10000 nM | –
19 | c1cnc2cc3c(cc2n1)[C@@H]1CNC[C@H]3C1 [varenicline] | – | – | – | – | – | – | – | – | – | – | – | – | nausea, share of clinical trial participants [11]: ~30%
